Assay results taken from patent US8822452B2, “Inhibitor compounds of 11-beta-hydroxysteroid dehydrogenase type 1” (Laboratorios Salvat, S.A., priority 2009, dated 2014).
Where “and” joins values, the source holds several entries; their conditions need not be identical. Equal values may be shown once.

Assays:
[1] = Acute glaucoma model: glucose-induced ocular hypertension in rabbit (IOP); assay type: in vivo, Chinchilla Bastard rabbits; details: for Glucose-induced Hypertension Ratio Inhibitor/Timolol: 0.5% suspension versus Timolol maleate solution 0.5%; for Glucose-induced Hypertension % Inhibition: eye instillation of 0.5% suspension 15 minutes before 5% glucose bolus 20 ml/kg
Procedure: In Vivo Efficacy of 11beta-HSD1 Inhibitors
In vivo efficacy of 11beta-HSD1 inhibitors was evaluated in an acute glaucoma model based on a glucose-induced ocular hypertension model in rabbit.
Male Chinchilla Bastard rabbits (1.5-2.5 kg) were obtained from Charles River (Germany) and were kept under controlled environmental conditions (12-hour light/12-hour dark cycle) with food and drinking water ad libitum. Animals were treated in accordance with the ARVO Statement for the Use of Animals in Ophthalmic and Vision Research.
In order to measure intraocular pressure (IOP) according to the glucose-induced ocular hypertension model, rabbits were restrained and basal IOP was determined using a Tonolab tonometer (Tiolat Oy) at least 1 hour after initial immobilization. Acute ocular hypertension was induced by a bolus of 5% glucose solution at 20 ml/kg into the marginal ear vein and IOP was determined 5, 10, 20, 30 and 40 minutes later. Eye treatment instillation was performed 15 minutes before the hypertension induction and both eyes of each animal were instilled with the same solution, either the vehicle, the 11beta-HSD1 inhibitor suspension at 0.5% or Timolol maleate solution at 0.5% as a positive control.

11-beta-HSD1 = target: T1, 11-beta-HSD1 (Homo sapiens, UniProt P28845); assay: Inhibitory activity of 11-beta-HSD1 in the microsomal fraction of transfected HEK293 cells (SPA, [3H]-cortisone); assay type: biochemical; details: microsomes of HEK-293 cells transfected with 11-beta-HSD1
T1 construct: expressed in transfected cells; host or cells: HEK-293 cells, stably transfected; microsome preparation
Procedure: Determination of the Inhibitory Activity of 11-Beta-HSD1 in the Microsomal Fraction of Transfected HEK293 Cells
99 μL of a reaction mixture which contained 80 nM [^3H]-cortisone, 1 mM NADPH and 40 μg/mL of the microsome preparations of HEK-293 cells stably transfected with the 11-beta-HSD1 clone, dissolved in assay buffer (50 mM HEPES, 100 mM KCl, 5 mM NaCl, 2 mM MgCl2/100 mL H2O) were added to a 96-well plate. The inhibitors to be analyzed were dissolved in 100% DMSO, and the final concentration in the reaction was 1%.
The reaction mixture was incubated for 2 hours at 37° C. under stirring. The total reaction volume per well was 100 μL. The stop solution (5 mg/mL ProteinA Spa bead, Superblock Blocking Buffer, 30 μM glycyrrhetinic acid, 1 μg/mL anticortisol monoclonal antibody) was simultaneously prepared, being incubated under stirring for two hours at rt and protected from light. Once the two hours lapsed, 50 μL of the stop solution were dispensed to each well in the reaction plate and was left to incubate for two hours at rt under stirring and protected from light. Once the second incubation ended, the plate was read in a 1450 Microbeta Tritalux (Wallac®) scintillation counter for 30 seconds per well.

11-beta-HSD2 = target: T2, 11-beta-HSD2 (Homo sapiens, UniProt P80365); assay: Inhibitory activity of 11-beta-HSD2 in the microsomal fraction of transfected HEK293 cells (SPA, [3H]-cortisol); assay type: biochemical; details: for inhibition at 10 µM: microsomes of HEK-293 cells transfected with 11-beta-HSD2
T2 construct: expressed in transfected cells; host or cells: HEK-293 cells, stably transfected; microsome preparation
T2 sequence (P80365 1-405): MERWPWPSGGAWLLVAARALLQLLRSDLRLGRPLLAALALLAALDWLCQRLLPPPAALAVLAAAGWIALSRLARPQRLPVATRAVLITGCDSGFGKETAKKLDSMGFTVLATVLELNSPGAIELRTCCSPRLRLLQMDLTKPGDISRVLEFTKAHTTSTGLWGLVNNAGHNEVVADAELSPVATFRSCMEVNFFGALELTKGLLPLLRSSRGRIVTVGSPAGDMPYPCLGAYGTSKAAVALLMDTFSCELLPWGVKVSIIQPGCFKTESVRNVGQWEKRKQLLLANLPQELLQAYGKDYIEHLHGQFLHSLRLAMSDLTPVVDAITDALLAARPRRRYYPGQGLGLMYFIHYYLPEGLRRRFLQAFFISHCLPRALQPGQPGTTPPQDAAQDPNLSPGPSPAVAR
Procedure: Determination of the Inhibitory Activity of 11-Beta-HSD2 in the Microsomal Fraction of Transfected HEK293 Cells
59 μL of the reaction mixture were added to a 96-well plate. This contained 1 mM NAD^+ and 80 μg/mL of the microsome preparations of HEK-293 cells stably transfected with the 11-beta-HSD2 clone, dissolved in assay buffer (50 mM HEPES, 100 mM KCl, 5 mM NaCl, 2 mM MgCl2/100 mL H2O). The inhibitors to be analyzed were dissolved in 100% DMSO, and the final concentration in the reaction was 1%. The reaction mixture was pre-incubated for 30 minutes at 37° C. under stirring. 40 μL of the reaction substrate, 3.2 nM [^3H]-cortisol dissolved in assay buffer were added. It was incubated at 37° C. for two hours under stirring. The stop solution was simultaneously prepared, being incubated for two hours at rt and protected from light. After this time 50 μL of the stop solution were added to end the reaction, and it was incubated for two hours at rt under stirring and protected from light. The signal emitted by SPA beads-cortisol complex was measured in the 1450 Microbeta Tritalux (Wallac®) scintillation counter for 30 seconds per well. This case measures the binding to the substrate, and not to the product as in the assay for the type 1 isoenzyme.

T1 sequence (P28845 whole entry): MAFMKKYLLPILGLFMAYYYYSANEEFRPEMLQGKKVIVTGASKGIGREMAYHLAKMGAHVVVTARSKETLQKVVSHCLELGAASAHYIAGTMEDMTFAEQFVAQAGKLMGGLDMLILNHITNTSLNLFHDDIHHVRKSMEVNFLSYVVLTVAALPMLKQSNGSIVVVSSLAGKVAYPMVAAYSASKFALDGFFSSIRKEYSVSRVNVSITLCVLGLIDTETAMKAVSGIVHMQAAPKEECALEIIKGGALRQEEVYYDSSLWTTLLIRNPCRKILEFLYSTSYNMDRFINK

| SMILES | inhibition at 10 µM (11-beta-HSD1) | inhibition at 10 µM (11-beta-HSD2) | % Inhibition (10 μM) 11-beta-HSD2 (11-beta-HSD2; microsomes of HEK-293 cells transfected with 11-beta-HSD2, 10 µM) | Glucose-induced Hypertension Ratio Inhibitor/Timolol [1] | Glucose-induced Hypertension % Inhibition [1] |
| --- | --- | --- | --- | --- | --- |
| O=C(CCCCC(=O)N1CCCC2CCCCC21)NC1C2CC3CC(C2)CC1C3 (centres unmarked) [Ia.96, 6-(octahydroquinolin-1-yl)-6-oxohexanoic acid tricyclo[3.3.1.1^3,7]decan-2-ylamide] | – | – | – | 0.84 | 46% |
| O=C(CCCCN1C(=O)c2ccccc2C1=O)N1CCC2CCCCC2C1 (centres unmarked) [If.8, 2-(5-(octahydroisoquinolin-2-yl)-5-oxopentyl) isoindoline-1,3-dione] | 100% | 4% | – | – | – |
| O=C(NCCC(=O)N1CCCC2CCCCC21)c1cc2ccccc2cn1 (centres unmarked) [Id.6, Isoquinoline-3-carboxylic acid [3-(octahydroquinolin-1-yl)-3-oxopropyl]amide] | 100% | 0% | – | – | – |
| O=C(CCCC(=O)N1CCCC2CCCCC21)NC1CCCc2ccccc21 (centres unmarked) [Ia.224, 5-(octahydroquinolin-1-yl)-5-oxopentanoic acid N-(1,2,3,4-tetrahydronaphthalen-1-yl)amide] | – | – | – | 0.25 | 16% |
| O=C1c2ccccc2C(=O)N1CCCCC(=O)N1CCCC2CCCCC21 (centres unmarked) [If.1, 2-(5-(octahydroquinolin-1-yl)-5-oxopentyl)isoindoline-1,3-dione] | 100% | 0% | – | 0.90 | 51% |
| O=C(CCCNC(=O)N1CCCC2CCCCC21)N1CCC2CCCCC2C1 (centres unmarked) [Ib.18, Octahydroquinoline-1-carboxylic acid [4-(octahydroisoquinolin-2-yl)-4-oxobutyl]amide] | 100% | 10% | – | – | – |
| O=C(CCCC(=O)N1CCCC2CCCCC21)NCCc1cccc(F)c1 (centres unmarked) [Ia.198, 5-(octahydroquinolin-1-yl)-5-oxopentanoic acid N-(3-fluorophenethyl)amide] | – | – | – | 0.65 | 41% |
| O=C1c2ccc(F)cc2C(=O)N1CCCCC(=O)N1CCCC2CCCCC21 (centres unmarked) [Ik.25, 5-fluoro-2-[5-(octahydroquinolin-1-yl)-5-oxopentyl]isoindole-1,3-dione] | 100% | 6% | – | – | – |

More lines, main results first:

| inhibition at 10 µM (11-beta-HSD1) | inhibition at 10 µM (11-beta-HSD2) | % Inhibition (10 μM) 11-beta-HSD2 (11-beta-HSD2; microsomes of HEK-293 cells transfected with 11-beta-HSD2, 10 µM) | SMILES | Glucose-induced Hypertension Ratio Inhibitor/Timolol [1] | Glucose-induced Hypertension % Inhibition [1] |
| --- | --- | --- | --- | --- | --- |
| 100% | 6% | – | CN(Cc1cccc2ccccc12)C(=O)CCCC(=O)N1CCCC2CCCCC21 (centres unmarked) [Ia.66, 5-(octahydroquinolin-1-yl)-5-oxopentanoic acid methylnaphthalen-1-ylmethylamide] | – | – |
| 93% | 0% | – | O=C(CCCC(=O)N1CCCC2CCCCC21)NCc1ccccc1 (centres unmarked) [Ia.61, 5-(octahydroquinolin-1-yl)-5-oxopentanoic acid benzylamide] | – | – |
| 100% | 0% | – | O=C(NCCC(=O)N1CCCC2CCCCC21)c1ccc2ccccc2n1 (centres unmarked) [Id.12, Quinoline-2-carboxylic acid[3-(octahydroquinolin-1-yl)-3-oxopropyl]amide] | 0.87 | 50% |
| 100% | – | 0% and 5% | CN(Cc1cccc2ccccc12)C(=O)CCCNC(=O)N1CCCC2CCCCC21 (centres unmarked) [Ib.8, Octahydroquinoline-1-carboxylic acid [3-(methylnaphthalen-1-ylmethylcarbamoyl)propyl]amide] | – | – |
| 100% | 0% | – | O=C(CCCC(=O)N1CCCC2CCCCC21)NCCc1ccccc1 (centres unmarked) [Ia.59, 5-(octahydroquinolin-1-yl)-5-oxopentanoic acid phenethylamide] | – | – |
| 100% | 13% | – | CN(Cc1cccc2ccccc12)C(=O)CCCNC(=O)N1CCC2CCCCC2C1 (centres unmarked) [Ib.80, Octahydroisoquinoline-2-carboxylic acid [3-(methylnaphthalen-1-ylmethylcarbamoyl)propyl]amide] | – | – |
